# In patent EP0761658A1, “Azole-phenyl urea derivatives as ACAT inhibitors and their production” (NIHON NOHYAKU CO., LTD., priority 1995, dated 1997):
# Tests used:
# [1] = test system: acyl-CoA:cholesterol acyltransferase (ACAT); assay: Inhibitory activity on acyl-CoA:cholesterol acyltransferase (ACAT), microsomal fraction of intestinal mucosa, [1-14C]oleyl-CoA incorporation into cholesterol esters; assay type: biochemical, white rabbit; details: rabbit intestinal mucosa microsomes
# Experimental: The enzyme used in the test was prepared according to the method of Heider et al. [J. Lipid Res. 24, 1127 (1983)]. A white rabbit was killed by blood-letting under anesthesia, after which its intestinal mucosa was collected and then homogenized, and microsomal fraction was obtained by stepwise centrifugation. The microsomal fraction was suspended in 0.154 M phosphate buffer (pH 7.4) and stored at -80°C until use.
# ACAT activity was determined by a modification of the method of Helgerud et al. [J. Lipid Res. 22, 271 (1981)] by measuring radioactivity incorporated into cholesterol esters from [1-^14C]oleyl-CoA, as an indication. As to the ACAT-inhibitory activity of each compound to be tested, the inhibition rate was calculated by the following equation. Inhibition rate (%) =([ACAT activity of control group which was given solvent]-[ACAT activity of group treated with compound to be tested])/([ACAT activity of control group which was given solvent])x 100 [formula]
# [2] = test system: rats fed on a high-cholesterol diet; assay: Serum cholesterol lowering activity in rats fed on a high-cholesterol diet; assay type: in vivo, Male Sprague-Dawley rats; details: Rattus norvegicus, 96 h; total serum cholesterol; 30 mg per kg of body weight per day for 4 days, suspended in 0.5% carboxymethyl cellulose; blood 24 hours after last administration; read-out: Reduction rate (%)
# Experimental: Male Sprague-Dawley rats of 6-week-old were divided into three groups. The first group (normal group) was fed an ordinary diet for 4 days. The second group (control group) was fed a high cholesterol diet (containing 1.0% cholesterol, 1.0% cholic acid and 8.5% coconut oil) for 4 days. The third group (treated group) was fed a high cholesterol diet and was treated with a compound for 4 days.
# Simultaneously with the beginning of the above feeding, the compound was suspended in a 0.5% carboxymethyl cellulose solution and administered to the treated group, in a dose of 30 mg (in terms of the compound) per kg of body weight per day for 4 days. A 0.5% carboxymethyl cellulose solution was also administered to the normal group and the control group in the same manner as above.
# After 24 hours of the last administration, blood was collected and the cholesterol concentration in serum was measured by an enzymatic method. The reduction rate of the total serum cholesterol concentration was calculated from values obtained for the three groups by the following equation. Choresterol reduction rate (%) =((A) - (B))/((A) - (C))x 100 [formula] wherein A: the serum cholesterol concentration of the control group. B: the serum cholesterol concentration of the treated group. C: the serum cholesterol concentration of the normal group.
smiles,measurement,setting,value
"CC(C)c1cccc(C(C)C)c1NC(=O)Nc1nc(-c2ccccc2)sc1-c1ccccc1Cl [Compound 23, N-[5-(2-Chlorophenyl)-2-phenylthiazol-4-yl]-N'-(2,6-diisopropylphenyl)urea]",Inhibition rate %,[1]; compound concentration 0.01 µm,59.4%
same,Inhibition rate %,[1]; compound concentration 1 (head prints '1 | 0.01 µm'),99.6%
same,inhibition in vivo at 30 mg/kg,[2],108%
